Measured values taken from patent publication US20190327965A1, “AGENTS AND METHODS FOR TREATMENT OF PATHOGENS” (Hexima Limited, priority 2014, published 2019).
Bridge positions count the residues as written; N and C are the ends. Peptide text beside a SMILES is read from it.

Tests used:
Saccharomyces cerevisiae = experiment: Growth inhibition by hairpin peptide alone, Saccharomyces cerevisiae; type: cell-based; details: hairpin peptide on its own
Excerpt: Some α-hairpinin and β-hairpin peptides show efficacy on their own against pathogens at a concentration higher than the concentration used in a combination with a plant defensin.

[1] = tested on: Colletotrichum graminicola
[2] = tested on: Fusarium graminearum (Fgr); type: cell-based; set-up: relative uptake of SYTOX green: reference not given here
[3] = tested on: Fusarium oxysporum f. sp. vasinfectum (Fov); type: cell-based; set-up: relative uptake of SYTOX green: reference not given here

Molecule | Permeability index [2] | relative uptake of SYTOX green [2] | Permeability index [3] | relative uptake of SYTOX green [3] | other results
C[C@@H](O)[C@@H]1NC(=O)[C@H](CCC(N)=O)NC(=O)[C@@H]2CSSC[C@H](NC(=O)[C@H](CCC(N)=O)NC(=O)[C@H](CCCNC(=N)N)NC(=O)[C@H](CCC(N)=O)NC(=O)[C@H](CCCNC(=N)N)NC(=O)[C@H](CCC(=O)O)NC(=O)[C@@H]3CCCN3C(=O)[C@H](CO)NC(=O)[C@H](CCC(N)=O)NC(=O)[C@H](CCC(=O)O)NC(=O)[C@H](CCC(N)=O)NC1=O)C(=O)N[C@@H](CCC(N)=O)C(=O)N[C@@H](CCC(N)=O)C(=O)N[C@@H](CCCNC(=N)N)C(=O)N[C@H](C(=O)N[C@@H](CCC(=O)O)C(=O)N[C@@H](CCCNC(=N)N)C(=O)N[C@@H](CCC(N)=O)C(=O)N[C@@H](Cc1ccc(O)cc1)C(=O)N[C@@H](CCCCN)C(=O)N[C@@H](CCC(=O)O)C(=O)O)CSSC[C@H](NC(=O)[C@H](CCCNC(=N)N)NC(=O)[C@H](Cc1c[nH]cn1)NC(=O)[C@H](Cc1ccc(O)cc1)NC(=O)[C@H](CCC(N)=O)NC(=O)[C@H](CCC(N)=O)NC(=O)[C@H](CCC(N)=O)NC(=O)[C@@H]1CCCN1C(=O)[C@@H](N)CC(=O)O)C(=O)N[C@@H](CCC(N)=O)C(=O)N[C@@H](CCCNC(=N)N)C(=O)N[C@@H](CCCNC(=N)N)C(=O)N2 [Cil_HPN_14F] (H-DPQQQYHRCQRRCQTQEQSPERQRQCQQRCERQYKE-OH; disulfide 9-30, 13-26 (inferred); N-terminus and C-terminus assumed) | – | – | – | – | IC50 (Saccharomyces cerevisiae): 12 µM
CSCC[C@@H]1NC(=O)[C@@H]2CSSC[C@H](NC(=O)[C@H](CCC(=O)O)NC(=O)[C@H](CCCNC(=N)N)NC(=O)[C@H](CCCNC(=N)N)NC(=O)[C@@H](NC(=O)[C@H](CCC(=O)O)NC(=O)[C@H](CCCCN)NC(=O)CNC(=O)CNC(=O)CNC(=O)CNC(=O)[C@@H](N)Cc3c[nH]cn3)CSSC[C@@H](C(=O)N[C@@H](CCC(=O)O)C(=O)N[C@@H](Cc3c[nH]c4ccccc34)C(=O)N[C@@H](CCCNC(=N)N)C(=O)N[C@@H](CCCNC(=N)N)C(=O)N[C@@H](Cc3c[nH]cn3)C(=O)N[C@@H](CCC(=O)O)C(=O)O)NC(=O)[C@H](CCC(N)=O)NC(=O)[C@H](CCCNC(=N)N)NC1=O)C(=O)N[C@@H](CCCNC(=N)N)C(=O)NCC(=O)N[C@@H](Cc1ccc(O)cc1)C(=O)N[C@@H](CCCNC(=N)N)C(=O)N[C@@H](CC(=O)O)C(=O)N[C@@H](CCC(=O)O)C(=O)N1CCC[C@H]1C(=O)N[C@@H](Cc1c[nH]c3ccccc13)C(=O)N[C@@H](CCCNC(=N)N)C(=O)N[C@@H](CCCCN)C(=O)N[C@@H](CCC(N)=O)C(=O)N[C@@H](CCC(=O)O)C(=O)N2 [Osa_HPN_86B] (H-HGGGGKECRRECRGYRDEPWRKQECMRQCEWRRHE-OH; disulfide 8-29, 12-25 (inferred); N-terminus and C-terminus assumed) | – | – | – | – | IC50 (Saccharomyces cerevisiae): 8 µM; IC50 (Candida albicans): 9 µM; IC50 (Fusarium graminearum): 18 µM; IC50 [1]: 13 µM
CC(C)[C@@H]1NC(=O)[C@@H]2CSSC[C@H](NC(=O)[C@H](CCC(N)=O)NC(=O)[C@H](CCCCN)NC(=O)[C@H](CCC(N)=O)NC(=O)[C@@H](NC(=O)[C@H](CCCNC(=N)N)NC(=O)[C@@H](N)CC(=O)O)CSSC[C@@H](C(=O)N[C@@H](CCCNC(=N)N)C(=O)N[C@@H](CCCNC(=N)N)C(=O)NCC(=O)N[C@@H](CCCNC(=N)N)C(=O)NCC(=O)N[C@@H](CO)C(=O)O)NC(=O)[C@H](CC(=O)O)NC(=O)[C@H](CCCNC(=N)N)NC1=O)C(=O)N[C@@H](CCC(N)=O)C(=O)N[C@@H](Cc1c[nH]cn1)C(=O)N[C@@H](Cc1ccc(O)cc1)C(=O)N[C@@H](CO)C(=O)N[C@@H](CC(=O)O)C(=O)N[C@@H](Cc1c[nH]c3ccccc13)C(=O)N[C@@H](CC(=O)O)C(=O)N[C@@H](CCCCN)C(=O)N[C@@H](CCCCN)C(=O)N[C@@H](CCC(N)=O)C(=O)N[C@@H](CCC(N)=O)C(=O)N2 [Sbi_HPN_104I] (H-DRCQKQCQHYSDWDKKQQCVRDCRRGRGS-OH; disulfide 3-23, 7-19 (inferred); N-terminus and C-terminus assumed) | – | – | – | – | IC50 (Saccharomyces cerevisiae): > 20 µM
HXL001: Class I permeabilizing defensin, mature protein SEQ ID NO:25 (RHCLSQSHRFKGLCMSSNNCANVCQTENFPGGECKAEGATRKCFCKKIC; HXL001 Zea Mays) | 0.9 | 300 | – | – | –
HXL002: permeabilizing defensin, mature protein SEQ ID NO:26 (RDCLSQSHKFKGACLSSSNCAAVCRTENFPDGECHTHNFARKCFCKRAC; HXL002 Triticum aestivum) | 1.0 | 320 | 0.9 | 260 | –
HXL004: Class I permeabilizing defensin, mature protein SEQ ID NO:27 (RTCESQSHRFKGLCFSRSNCASVCHTEGFNGGHCRGFRRRCFCTRHC; HXL004 Nicotiana benthamiana) | 1.6 | 500 | – | – | –
HXL007: permeabilizing defensin, mature protein SEQ ID NO:28 (RTCESLADTYRGPCFTDGSCDDHCKNKEHLISGRCRNDFRCWCTRNC; HXL007 Cyamopsis tetragonoloba) | – | – | 1.2 | 350 | –
HXL008: Class I permeabilizing defensin, mature protein SEQ ID NO:29 (KVCTKPSKFFKGLCGTDGACTTACRKEGLHSGYCQLKGFLNSVCVCRKHC; HXL008 Picramnia pentandra) | 0.9 | 300 | 0.8 | 225 | –
HXL013: Class I permeabilizing defensin, mature protein SEQ ID NO:30 (KDCLTRRHGFQGRCLFDRQCAHVCRSDGFIGGQCRGPLRKCFCSRPC; HXL013 Glycine max) | 1.4 | 450 | – | – | –
HXP4: synthetic (artificial) defensin variant, SEQ ID NO:8 (RECKTESHRFKGPCITKPPCRKACISEKFTDGHCSKILRRCLCTKPC; HXP4 protein) | 1.3 | 400 | 0.7 | 220 | –
Hordothionin [reference compound] | 0.4 | 120 | – | – | –
NaD1: Class II Solanaceous defensin from flowers of ornamental tobacco Nicotiana alata (Q8GTM0) (RECKTESNTFPGICITKPPCRKACISEKFTDGHCSKILRRCLCTKPC; UniProt Q8GTM0 26-72, looked up) | 1.0 | 320 | 1.0 | 300 | –
RsAFP2: defensin compared in the Fgr permeabilization assay (QKLCQRPSGTWSGVCGNNNACKNQCIRLEKARHGSCNYVFPAHKCICYFPC; UniProt P30230 30-80, looked up) [reference compound] | 0.3 | 100 | – | – | –
